Experimental data from US20250136617A1 (The Regents of the University of Colorado, A Body Corporate, priority 2022, published 2025).
Where two headings read alike, the source gives them in different places.

Experiments:
CXCR4 = CXCR4 (Homo sapiens, UniProt P61073); assay: β-arrestin recruitment, 384-well, Tango CXCR4-bla U2OS cells, normalized to SDF-1α; type: cell-based; design: host or cells: U2OS; conditions: for ß-arrestin recruitment Emax (%): normalized to maximal SDF-1α response; for Emax: U2OS
Chain of CXCR4 (P61073 whole entry): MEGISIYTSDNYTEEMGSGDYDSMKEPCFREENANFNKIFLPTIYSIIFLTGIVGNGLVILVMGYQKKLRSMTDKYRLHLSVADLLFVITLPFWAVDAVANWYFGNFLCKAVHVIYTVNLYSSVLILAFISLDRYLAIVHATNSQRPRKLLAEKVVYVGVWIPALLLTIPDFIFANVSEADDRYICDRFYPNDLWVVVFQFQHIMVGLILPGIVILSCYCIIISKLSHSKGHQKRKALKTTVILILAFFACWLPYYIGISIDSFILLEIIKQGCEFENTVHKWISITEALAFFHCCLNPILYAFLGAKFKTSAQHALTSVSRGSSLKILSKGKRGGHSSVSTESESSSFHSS
Procedure: Tango™ CXCR4-bla U2OS Cells (Invitrogen; K1779) were used for (β-arrestin recruitment assays and maintained as a monolayer culture in McCoy's 5a (Corning; 10-050-CV) supplemented with 10% dialyzed Fetal Bovine Serum (Gibco; 26400-044), 0.1 mM MEM Non-essential amino acids solution, 25 mM HEPES solution (Corning; 25-060-CI), 1 mM Sodium Pyruvate (Gibco; 11360-070), 200 μg/mL Zeocin selection reagent (Gibco; R25001), 50 μg/mL Hygromycin B (Gibco, 10687010), and 100 μg/mL Geneticin (G418 Sulfate) (Gibco, 10131035). U2OS cells were subcultured twice weekly by 0.05% Trypsin-EDTA treatment (Corning; 25-051-CI) and passaged to continue exponential growth phase for cell signaling assays. All cell cultures were maintained in cell culture incubators at 37° C. with 5% CO2. CHO-K1 CXCR4 cells (DiscoverX, Fremont, CA, USA) were used for cAMP inhibition assays and maintained as a monolayer culture in DMEM/F12 (Corning; 10-091-CV) supplemented with 10% Fetal Bovine Serum (Corning; 35-011-CV) and 100IU penicillin, […] streptomycin sulfate (Corning; 30-002-CI) and […] G418 (Gibco; 101310350. Cells were subculture 2 times weekly by o.o5% Trypsin-EDTA treatment (Corning; 25-051-CI) and passaged to continue exponential growth phase for cell signaling assays. All cell cultures were maintained in cell culture incubators at 37° C. with 5% CO2.CEM-CCRF cells (ATCC CCL-119) were used in both the migration and calcium flux assays and were cultured in growth media consisting of RPMI 1640 (Corning; 10-040-CV) supplemented with 10% Fetal Bovine Serum (Corning; 35-011-CV), and 100 IU penicillin, […] streptomycin sulfate (Corning; 30-002-CI). Cells were maintained in suspension and sub-cultured twice weekly to maintain cell densities between 0.8×10^6 cells/mL and 2.5×10^6 cells/mL to maintain exponential growth phase. Cells were harvested for use in migration and calcium flux assays at 2.0×10^6 cells/mL to 2.5×10^6 cells/mL and resuspended in assay media to desired density for respective experiments.
Tango™ CXCR4-bla U2OS Cells were resuspended in assay media consisting of DMEM (Corning; Corning, NY) supplemented with 1% dialyzed Fetal bovine serum, 0.1 mM MEM Non-essential amino acids solution, 25 mM HEPES solution (Corning; Corning, NY), 1 mM Sodium Pyruvate and 100 IU penicillin, […] streptomycin sulfate (Corning; Corning, NY) at a density of 3.0×10^5 cells/ml. Assay media FreeStyle 293 expression Medium (Gibco; 12338018) was used for testing the thiadiazine scaffold CXCR4 agonists. Cells suspension was dispensed at 30 μl per well into assay plate and incubated overnight in a cell culture incubator at 37° C. with 5% CO2. […] Following overnight incubation, LiveBlazer FRET B/G Loading Kit (Invitrogen; K1095) working reagent was prepared according to supplier guidelines and 6 μl of solution was dispensed into each well; 8 μL of solution for testing the thiadiazine scaffold CXCR4 agonists. Assay plate was covered and incubated in a dark place for two hours and Fluorescence Intensity was measured using the BMG LABTECH CLARIOstar Plus (BMG LABTECH Inc., Cary, NC) according to the LiveBlazer FRET B/G Loading Kit excitation and emission measurement guidelines.
Results are expressed as mean±SD for 3 to 5 independent experiments. Statistically significant differences in gene expression between two groups were assessed by Student's T-test, ANOVA with an appropriate post hoc test was be used for multiple comparisons. P<0.05 was considered to be statistically significant. All concentration response curves were analyzed to determine EC50 and Emax using the following equation:
where Y is the normalized response (0-100%), X is the log of concentration of compound tested, and the Hill slope is equal to 1.0% and 100% activity are specific to each assay. […]

[1] = system: CEM-CCRF human lymphoblast cells; assay: Transwell migration assay in CEM-CCRF lymphoblasts; type: cell-based
Procedure: Thus, to confirm CXCR4 functional activity, UCUF-728 was evaluated in a 96 w transwell migration assay in CEM human lymphoblast cells.
CEM-CCRF (ATCC CCL-119) were suspended in RPMI 1640 (Corning; 10-040-CV) at 5.0×10^5 cells/mL and allowed to incubate in cell culture incubator at 37° C. with 5% CO2 for one hour. […] Plates were reassembled and placed in a cell culture incubator at 37° C. with 5% CO2 for three hours. After incubation, Multi-Screen plate was disassembled and 100 μl of solution was collected from compound receiver tray and transferred to 96 well luminescent plate (Thermo Scientific; 265302) and an equal volume of ATPLite Istep luminescence reagent (Perkin Elmer, Waltham, MA; 6016731) was added to each well. Luminescence was measured using the CLARIOstar Plus (BMG LABTECH Inc., Cary, NC).

[2] = normalized to SDF-1, read-out: TANGO β-arrestin EC50
[3] = normalized to SDF-1α, read-out: ß-arrestin recruitment EC50
[4] = Homo sapiens, read-out: Migration CEM EC50 (μM)
[5] = normalized to SDF-1, read-out: TANGO β-arrestin Emax (%)
[6] = Homo sapiens, read-out: Migration CEM EC50

| Structure (SMILES) | EC50 (CXCR4; [2]) [µM] | Emax (CXCR4; [5]) [%] | other results |
| --- | --- | --- | --- |
| COc1ccccc1-c1nnc2n1N=C(c1ccccc1)CS2 | > 80 | – | – |
| COc1ccccc1-c1nnc2n1N=C(c1ccc([N+](=O)[O-])cc1)CS2 | – | – | EC50 (CXCR4; [3]): > 80 µM |
| COc1ccc(C2=Nn3c(nnc3-c3ccccc3OC)SC2)cc1 [Entry 1] | < 5 | – | TANGO β-arrestin Emax (%) (CXCR4; normalized to SDF-1): B (35 < B < 70); EC50 (CXCR4; [3]): 0.054 µM; ß-arrestin recruitment Emax (%) (CXCR4): 45% |
| CCOc1ccccc1-c1nnc2n1N=C(c1ccc(OC)cc1)CS2 [Entry 3] | < 5 | > 70 | Emax ([1]; Homo sapiens): 35 to 70%; EC50 [1, 4]: < 5 µM |
| CCCCOc1ccc(C2=Nn3c(nnc3-c3ccccc3OC)SC2)cc1 [Entry 5] | < 5 | < 35 | EC50 [1, 4]: > 10 µM |
| C=CCOc1ccc(C2=Nn3c(nnc3-c3ccccc3OCC)SC2)cc1 [Entry 6] | < 5 | > 70 | Migration CEM Emax (%) [1]: B (35 < B < 70); EC50 ([1]; read-out: Migration CEM EC50): < 5 µM |
| C=CCOc1ccc(C2=Nn3c(nnc3-c3ccccc3OCC)SC2)cc1 [Entry 7] | < 5 | – | Migration CEM Emax (%) [1]: A (A ≥ 70); EC50 [1, 6]: < 5 µM; TANGO β-arrestin Emax (%) (CXCR4; normalized to SDF-1): A (A ≥ 70) |
| COCCOc1ccc(C2=Nn3c(nnc3-c3ccccc3OC)SC2)cc1 [Entry 8] | < 5 | < 35 | Emax ([1]; Homo sapiens): < 35%; EC50 [1, 4]: < 5 µM |
| CCOc1ccccc1-c1nnc2n1N=C(c1ccc(OC(F)(F)F)cc1)CS2 [Entry 10] | < 5 | > 70 | Emax ([1]; Homo sapiens): > 70%; EC50 [1, 4]: 5 to 50 µM |
| CCOc1ccccc1-c1nnc2n1N=C(c1ccc(OC(F)F)cc1)CS2 [Entry 11] | < 5 | 35 to 70 | Emax ([1]; Homo sapiens): > 70%; EC50 [1, 4]: < 5 µM |
| COc1ccccc1-c1nnc2n1N=C(c1ccc(SC)cc1)CS2 [Entry 12] | < 5 | > 70 | Emax ([1]; Homo sapiens): 35 to 70%; EC50 [1, 6]: < 5 µM |
| COc1ccccc1-c1nnc2n1N=C(c1ccc(N(C)C)cc1)CS2 [Entry 13] | < 5 | > 70 | Emax ([1]; Homo sapiens): 35 to 70%; EC50 [1, 6]: < 5 µM; Emax (CXCR4; read-out: ß-arrestin recruitment Emax (%)): 91%; EC50 (CXCR4; [3]): 0.06 µM |
| CCOc1ccccc1-c1nnc2n1N=C(c1ccc(N3CCCC3)cc1)CS2 [Entry 14] | < 5 | > 70 | Migration CEM Emax (%) [1]: B (35 < B < 70); EC50 [1, 6]: < 5 µM |
| COc1ccccc1-c1nnc2n1N=C(c1ccc(C)cc1)CS2 [Entry 17] | < 5 | 35 to 70 | – |
| CCc1ccc(C2=Nn3c(nnc3-c3ccccc3OC)SC2)cc1 [Entry 18] | < 5 | 35 to 70 | – |
| CCCCc1ccc(C2=Nn3c(nnc3-c3ccccc3OC)SC2)cc1 [Entry 19] | 5 to 50 | – | TANGO β-arrestin Emax (%) (CXCR4; normalized to SDF-1): C (C ≤ 35); EC50 (CXCR4; [3]): 14.1 µM; ß-arrestin recruitment Emax (%) (CXCR4): 12% |
| COc1ccccc1-c1nnc2n1N=C(c1ccc(-c3ccccc3)cc1)CS2 [Entry 20] | 5 to 50 | > 70 | – |
| COc1ccccc1-c1nnc2n1N=C(c1ccc(N3CCOCC3)cc1)CS2 [Entry 25] | 5 to 50 | > 70 | – |
| CCOc1ccccc1-c1nnc2n1N=C(c1ccc(N)cc1)CS2 [Entry 26] | > 10 | – | – |

| Structure (SMILES) | EC50 (CXCR4; [2]) [µM] | Emax (CXCR4; [5]) [%] | other results |
| --- | --- | --- | --- |
| CCOc1ccccc1-c1nnc2n1N=C(c1ccc(N3CCC3)cc1)CS2 [Entry 28] | < 5 | 35 to 70 | – |
| CCOc1ccccc1-c1nnc2n1N=C(c1ccc(NC(=O)C3CCCC3)cc1)CS2 [Entry 33] | > 10 | – | – |
| CCOc1ccccc1-c1nnc2n1N=C(c1ccc(NCC(=O)O)cc1)CS2 [Entry 40a] | – | – | Emax ([1]; Homo sapiens): 23%; EC50 [1, 4]: 0.32 µM |
| CCOc1ccccc1-c1nnc2n1N=C(c1ccc(NC3CCC3)cc1)CS2 [Entry 44] | < 5 | > 70 | – |
| c1ccc(C2=Nn3c(nnc3-c3ccccc3)SC2)cc1 [Entry 50] | > 80 | – | – |
| COc1ccc(C2=Nn3c(nnc3-c3ccccc3)SC2)cc1 [Entry 51] | 5 to 50 | 35 to 70 | – |
| COc1ccc(C2=Nn3c(nnc3-c3ccccc3)SC2)cc1OC [Entry 52] | > 80 | – | – |
| COc1ccc(C2=Nn3c(nnc3-c3ccccc3OC)SC2)c(OC)c1 [Entry 54] | < 5 | 35 to 70 | – |
| COc1ccc(C2=Nn3c(nnc3-c3ccccc3OC)SC2)cc1 [Entry 55] | < 5 | 35 to 70 | – |
| COc1ccc(OC)c(-c2nnc3n2N=C(c2ccc(OC)c(OC)c2)CS3)c1 [Entry 56] | < 5 | – | TANGO β-arrestin Emax (%) (CXCR4; normalized to SDF-1): B (35 < B < 70) |
| CCOc1ccccc1-c1nnc2n1N=C(c1ccc(OC)c(OC)c1)CS2 [Entry 57] | < 5 | 35 to 70 | – |
| COc1cccc(-c2nnc3n2N=C(c2ccccc2)CS3)c1 [Entry 58] | > 80 | – | – |
| COc1ccc(-c2nnc3n2N=C(c2ccccc2)CS3)cc1 [Entry 59] | > 80 | – | – |
| COc1ccc(C2=Nn3c(nnc3-c3cccc(OC)c3)SC2)cc1 [Entry 60] | < 5 | 35 to 70 | – |
| COc1cc(-c2nnc3n2N=C(c2ccccc2)CS3)cc(OC)c1OC [Entry 61] | > 80 | – | – |
| COc1cc(-c2nnc3n2N=C(c2ccc(Br)cc2)CS3)cc(OC)c1OC [Entry 62] | < 5 | – | TANGO β-arrestin Emax (%) (CXCR4; normalized to SDF-1): B (35 < B < 70) |
| COc1cccc(C2=Nn3c(nnc3-c3ccccc3OC)SC2)c1 [Entry 85] | – | – | EC50 (CXCR4; [3]): 10.7 µM; ß-arrestin recruitment Emax (%) (CXCR4): 40% |
| CCOc1ccccc1-c1nnc2n1N=C(c1ccc(N3CCCC3)cc1)CS2 [compound 24] | – | – | Migration CEM Emax (%) [1]: A (A ≥ 70) |
